Test results published in PubChem BioAssay AID328 (DTP/NCI, 2004).
“And” between values parts separate entries of the source, which are not always exact repeats. Equal entries are not always repeated. Toxic doses and inconclusive results are not listed. The calls were made as follows: active = survival T/C of 150% or more; inactive = T/C below 125% in these data.

System: BDF1 mice, P388 leukemia ip, median survival T/C
Test: NCI In Vivo Anticancer Drug Screen. Data for tumor model P388 Leukemia (intraperitoneal) in B6D2F1 (BDF1) mice
Settings: endpoint: median survival time, higher = longer survival
How it was run: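 Vehicle-dosed animals serve as the reference; survival of compound-dosed, tumour-implanted mice is divided by it.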

[1] = dose: 100.0 mg/kg/injection, schedule: Q04DX003 (ip), vehicle: saline sonified
[2] = dose: 200.0 mg/kg/injection, schedule: Q04DX003 (ip), vehicle: saline sonified
[3] = dose: 400.0 mg/kg/injection, schedule: Q04DX003 (ip), vehicle: saline sonified
[4] = dose: 50.0 mg/kg/injection, schedule: Q01DX009 (ip), vehicle: saline with Tween-80
[5] = dose: 100.0 mg/kg/injection, schedule: Q01DX009 (ip), vehicle: saline with Tween-80
[6] = dose: 200.0 mg/kg/injection, schedule: Q01DX009 (ip), vehicle: saline with Tween-80
[7] = dose: 100.0 mg/kg/injection, schedule: Q04DX003 (ip), vehicle: saline with Tween-80
[8] = dose: 200.0 mg/kg/injection, schedule: Q04DX003 (ip), vehicle: Klucel (hydroxypropylcellulose) (HPC)
[9] = dose: 400.0 mg/kg/injection, schedule: Q04DX003 (ip), vehicle: Klucel (hydroxypropylcellulose) (HPC)
[10] = dose: 100.0 mg/kg/injection, schedule: Q04DX003 (ip), vehicle: saline
[11] = dose: 200.0 mg/kg/injection, schedule: Q04DX003 (ip), vehicle: saline

Measured: T/C

COc1cccc(C(=O)C=C(C(F)(F)F)C(F)(F)F)c1
inactive: dose: 11.0 mg/kg/injection, schedule: Q01DX009 (ip), vehicle: saline with Tween-80 109 % of control | dose: 16.5 mg/kg/injection, schedule: Q01DX009 (ip), vehicle: saline with Tween-80 109 % of control | dose: 25.0 mg/kg/injection, schedule: Q01DX009 (ip), vehicle: saline with Tween-80 113 % of control

CC1OC(O[C@@H]2C=C3CC[C@@H]4[C@H](CC[C@]5(C)[C@@H](c6ccc(=O)oc6)CC[C@]45O)[C@@]3(C)CC2)C(O)C(OC2OC(CO)C(O)C(O)C2O)C1O (some centres undefined)
inactive: dose: 0.8 mg/kg/injection, schedule: Q01DX010 (sc), vehicle: steriod suspending solution 100 % of control | dose: 1.6 mg/kg/injection, schedule: Q01DX010 (sc), vehicle: steriod suspending solution 95 % of control | dose: 2.0 mg/kg/injection, schedule: Q01DX010 (ip), vehicle: carboxymethylcellulose (CMC) 110 % of control | dose: 3.25 mg/kg/injection, schedule: Q01DX010 (sc), vehicle: steriod suspending solution 110 % of control | dose: 4.0 mg/kg/injection, schedule: Q01DX010 (ip), vehicle: carboxymethylcellulose (CMC) 100 % of control | dose: 7.5 mg/kg/injection, schedule: Q01DX010 (sc), vehicle: steriod suspending solution 115 % of control | dose: 8.0 mg/kg/injection, schedule: Q01DX010 (ip), vehicle: carboxymethylcellulose (CMC) 95 % of control | dose: 15.0 mg/kg/injection, schedule: Q01DX010 (sc), vehicle: steriod suspending solution 105 % of control | dose: 30.0 mg/kg/injection, schedule: Q01DX010 (sc), vehicle: steriod suspending solution 100 % of control

CC(O)Cc1c[nH]c(=O)[nH]c1=O (centres undefined)
inactive: dose: 100.0 mg/kg/injection, schedule: Q01DX009 (ip), vehicle: water 92 % of control | dose: 100.0 mg/kg/injection, schedule: Q04DX003 (ip), vehicle: water 90 % of control | dose: 200.0 mg/kg/injection, schedule: Q01DX009 (ip), vehicle: water 96 % of control | dose: 200.0 mg/kg/injection, schedule: Q04DX003 (ip), vehicle: water 105 % of control | dose: 400.0 mg/kg/injection, schedule: Q04DX003 (ip), vehicle: water 96 % of control

CN(C)Cc1ccc(-c2cc3onc(-c4ccccc4)c3c(=O)n2C)cc1
inactive: dose: 50.0 mg/kg/injection, schedule: Q01DX005 (ip), vehicle: saline with Tween-80 108 % of control | dose: 100.0 mg/kg/injection, schedule: Q01DX005 (ip), vehicle: saline with Tween-80 94 % of control | dose: 200.0 mg/kg/injection, schedule: Q01DX005 (ip), vehicle: saline with Tween-80 97 % of control

O=c1[nH]cnc2sc3c(c12)CCCC3
inactive: [1] 95 % of control | [2] 100 % of control | [3] 100 % of control

CC(C)(C)CC(C)(C)c1ccc(OCCOS(=O)(=O)c2cccc([N+](=O)[O-])c2)cc1
inactive: [4] 109 % of control | [5] 95 % of control | [6] 118 % of control

C/C(=C/B1OCCO1)CCl
inactive: [1] 105 % of control | [2] 100 % of control | [3] 110 % of control

CCCCc1c(C)[nH]c(=S)[nH]c1=O
inactive: [7] 95 % of control | dose: 200.0 mg/kg/injection, schedule: Q04DX003 (ip), vehicle: saline with Tween-80 109 % of control | dose: 400.0 mg/kg/injection, schedule: Q04DX003 (ip), vehicle: saline with Tween-80 95 % of control

CN(C)c1ccc(/C=C/c2ccnc3c(N)cccc23)cc1
inactive: dose: 100.0 mg/kg/injection, schedule: Q04DX002 (ip), vehicle: saline with Tween-80 110 % of control | dose: 200.0 mg/kg/injection, schedule: Q04DX002 (ip), vehicle: saline with Tween-80 113 % of control | dose: 400.0 mg/kg/injection, schedule: Q04DX002 (ip), vehicle: saline with Tween-80 116 % of control

O=C1c2ccccc2C(=O)c2c(Nc3ccc(CCO)cc3)ccc(O)c21
inactive: dose: 100.0 mg/kg/injection, schedule: Q04DX003 (ip), vehicle: Klucel (hydroxypropylcellulose) (HPC) 100 % of control | [8] 100 % of control | [9] 111 % of control

CN(C)c1ccccc1.[C-]#[O+].[C-]#[O+].[C-]#[O+].[Cr]
inactive: [7] 91 % of control

Cn1c2c(sc1=O)CCC2
inactive: dose: 50.0 mg/kg/injection, schedule: Q04DX003 (ip), vehicle: saline 100 % of control | [10] 87 % of control | [11] 100 % of control

BrC1C2C=CCC1CC2 (centres undefined)
inactive: dose: 100.0 mg/kg/injection, schedule: Q01DX009 (ip), vehicle: saline 100 % of control | [10] 91 % of control | dose: 200.0 mg/kg/injection, schedule: Q01DX009 (ip), vehicle: saline 90 % of control | [11] 91 % of control | dose: 400.0 mg/kg/injection, schedule: Q01DX009 (ip), vehicle: saline 104 % of control | dose: 400.0 mg/kg/injection, schedule: Q04DX003 (ip), vehicle: saline 95 % of control

CCCCN(CCCC)CC(O)c1c2cccc(Cl)c2cc2c(Cl)cccc12 (centres undefined)
inactive: [4] 107 % of control | [5] 102 % of control | [6] 123 % of control

OCC1OCC(O)C(O)C1O (centres undefined)
inactive: dose: 12.5 mg/kg/injection, schedule: Q01DX010 (ip), vehicle: saline 91 % of control | dose: 25.0 mg/kg/injection, schedule: Q01DX010 (ip), vehicle: saline 108 % of control | dose: 32.0 mg/kg/injection, schedule: Q03HX024 (ip), vehicle: saline 95 % of control | dose: 50.0 mg/kg/injection, schedule: Q01DX010 (ip), vehicle: saline 108 % of control | dose: 64.0 mg/kg/injection, schedule: Q03HX024 (ip), vehicle: saline 87 % of control | dose: 100.0 mg/kg/injection, schedule: Q01DX010 (ip), vehicle: saline 91 % of control | dose: 128.0 mg/kg/injection, schedule: Q03HX024 (ip), vehicle: saline 100 % of control | dose: 128.0 mg/kg/injection, schedule: Q04DX003 (ip), vehicle: saline 87 % of control and 104 % of control | dose: 200.0 mg/kg/injection, schedule: Q01DX010 (ip), vehicle: saline 110 % of control | dose: 256.0 mg/kg/injection, schedule: Q04DX003 (ip), vehicle: saline 91 % of control and 100 % of control | dose: 512.0 mg/kg/injection, schedule: Q04DX003 (ip), vehicle: saline 90 % of control | dose: 800.0 mg/kg/injection, schedule: Q01DX010 (ip), vehicle: saline 115 % of control | dose: 1024.0 mg/kg/injection, schedule: Q04DX003 (ip), vehicle: saline 100 % of control

CN1CCCC1c1cccnc1 (centres undefined)
inactive: dose: 3.13 mg/kg/injection, schedule: Q01DX009 (ip), vehicle: saline 109 % of control | dose: 6.25 mg/kg/injection, schedule: Q01DX009 (ip), vehicle: saline 109 % of control

CCOC(=O)c1cnc(SC)nc1NCc1ccccc1Cl
inactive: dose: 100.0 mg/kg/injection, schedule: Q01DX009 (ip), vehicle: Klucel (hydroxypropylcellulose) (HPC) 100 % of control | dose: 200.0 mg/kg/injection, schedule: Q01DX009 (ip), vehicle: Klucel (hydroxypropylcellulose) (HPC) 100 % of control | dose: 400.0 mg/kg/injection, schedule: Q01DX009 (ip), vehicle: Klucel (hydroxypropylcellulose) (HPC) 100 % of control

CN(C)c1ccc(C=O)c(Oc2ccccc2)c1
inactive: dose: 12.5 mg/kg/injection, schedule: Q04DX003 (ip), vehicle: Klucel (hydroxypropylcellulose) (HPC) 91 % of control | dose: 25.0 mg/kg/injection, schedule: Q04DX003 (ip), vehicle: Klucel (hydroxypropylcellulose) (HPC) 108 % of control | dose: 50.0 mg/kg/injection, schedule: Q04DX003 (ip), vehicle: Klucel (hydroxypropylcellulose) (HPC) 91 % of control | [8] 100 % of control | [9] 100 % of control
